The term EC50 denotes the concentration needed to bring the measured effect to its halfway point. The term CC50 denotes the concentration giving 50% cytotoxicity.

This note sets out measurements from ChEMBL document CHEMBL1156814, “Highly suppressing wild-type HIV-1 and Y181C mutant HIV-1 strains by 10-chloromethyl-11-demethyl-12-oxo-calanolide A with druggable profile” (J Med Chem, 2010).

In data set [1] the test system is Human immunodeficiency virus 1. As to the kind of experiment: Antiviral activity against 100 TCID50 HIV1 infected in human TZM-b1 cells assessed as inhibition of viral replication by pseudovirus based assay. It counts as functional, organism-based.
Data set [2] can be described thus: Selectivity index, ratio of IC50 for African green monkey Vero cells to EC50 for HIV1. Conditions: read-out: Selectivity Index; call rule not given here. The format is toxicity, cell-based.
Data set [3] is described as follows: Toxicity in African green monkey Vero cells. The settings on record: chlorocebus sabaeus. It counts as cell-based.
Setting [4] is: Human immunodeficiency virus 1, TZM-b1, read-out: EC50.

For `CCCc1cc(=O)oc2c3c(c4c(c12)OC(C)(C)C=C4)OC(CBr)CC3=O` (configuration not stated), the EC50 in data set [1] (setting [4]) is 0.18 µM.

Consider `CCCc1cc(=O)oc2c3c(c4c(c12)OC(C)(C)C=C4)OC(CNC(=O)Nc1ccc(F)cc1)CC3=O` (configuration not stated), for which the EC50 entry in data set [1] (tzm-b1) is reported as “Not Active”.

For `CCCc1cc(=O)oc2c3c(c4c(c12)OC(C)(C)C=C4)OC(CNC(=O)Nc1ccccc1OC)CC3=O` (configuration not stated), the EC50 result in data set [1] (tzm-b1) is given as “Not Active”.

For the compound `CCCc1cc(=O)oc2c3c(c4c(c12)OC(C)(C)C=C4)OC(CSC)CC3=O` (configuration not stated), the EC50 in data set [1] (setting [4]) was determined as 0.456 µM.

Consider `CCCc1cc(=O)oc2c3c(c4c(c12)OC(C)(C)C=C4)OC(CN1CCCC1)CC3=O` (configuration not stated), for which the EC50 result in data set [1] (tzm-b1) was “Not Active”.

Consider `CCCc1cc(=O)oc2c3c(c4c(c12)OC(C)(C)C=C4)OC(COC)CC3=O` (configuration not stated), for which, in data set [2], the selectivity ratio was determined as 39.7. In data set [3], this compound yielded a CC50 of 9.89 µM. Also, the EC50 in data set [1] (setting [4]) was 0.18 µM.

Take `CCCc1cc(=O)oc2c3c(c4c(c12)OC(C)(C)C=C4)OC(C[S+](C)[O-])CC3=O` (configuration not stated): in data set [1] (setting [4]), the EC50 was determined as 14.4 µM.

Take `CCCc1cc(=O)oc2c3c(c4c(c12)OC(C)(C)C=C4)OC(CS(C)(=O)=O)CC3=O` (configuration not stated): in data set [1] (setting [4]), the EC50 was 33.9 µM.

With `CCCc1cc(=O)oc2c3c(c4c(c12)OC(C)(C)C=C4)OC(CNS(=O)(=O)c1ccc(NC(C)=O)cc1)CC3=O` (configuration not stated), the EC50 result in data set [1] (tzm-b1) was “Not Active”.

For `CCCc1cc(=O)oc2c3c(c4c(c12)OC(C)(C)C=C4)OC(CNS(=O)(=O)c1ccc(F)cc1)CC3=O` (configuration not stated), the EC50 entry in data set [1] (tzm-b1) is given as “Not Active”.
